Assay results from patent publication US20260250318A1, “COMPOSITIONS AND METHODS FOR CROSSING THE BLOOD BRAIN BARRIER” (VOYAGER THERAPEUTICS, INC., priority 2022, published 2026).

Tests used:
brain [1] = assay: Maturation of TTM-002 capsid, NGS enrichment in brain of CD-1 Outbred mice; assay type: in vivo; details: NGS fold-enrichment in the brain of CD-1 Outbred mice; intravenous, 1.0×10^12 VG/dose, 14 days; RNA; relative to non-matured TTM-002 control
Description: This Example describes maturation of the TTM-001 (SEQ ID NO: 981 (amino acid) and 983 (DNA), comprising SEQ ID NO: 941) and TTM-002 (SEQ ID NO: 982 (amino acid) and 984 (DNA), comprising SEQ ID NO: 2) capsid variants to further enhance their transduction and biodistribution in the central nervous system and evolve the AAV capsid variants to provide further cross-species compatibility. Two approaches were used to mature the TTM-001 and TTM-002 capsid sequences in order to randomize and mutate within and around the peptide insert comprised within loop IV of the capsid variant. […] In the first maturation approach, sets of three contiguous amino acids were randomized across the mutagenesis region in the TTM-001 and TTM-002 sequences, which spanned from position 450 to position 466, numbered according to SEQ ID NO: 981 and 982. In the second maturation approach, mutagenic primers were used to introduce point mutations at a low frequency, scattered across the mutagenesis region in the TTM-001 and TTM-002 sequences ranging from position 449 to position 466, numbered according to SEQ ID NO: 981 and 982. AAV capsid variants arising from each maturation approach for TTM-001 were pooled together and AAV capsid variants arising from each maturation approach for TTM-002 were also pooled together, for subsequent testing and characterization in mice.
The library of pooled matured AAV capsid variants generated from TTM-001 or library of pooled matured AAV capsid variants generated from the TTM-002 matured AAV capsid variant each were intravenously injected into the tail vein of three female CD-1 Outbred mice (Charles River) at a dose of 1.0×10^12 VG/dose. After 14-days in life, the brains of the mice were isolated and RNA was extracted. Following RNA recovery and RT-PCR amplification, a systematic NGS enrichment analysis was performed to calculate the fold enrichment ratio relative to the corresponding TTM-001 or TTM-002 control, and the peptides comprised within the variants were identified. The data for the TTM-001 matured capsid variants is provided in Table 13 and the data for the TTM-002 matured capsid variants is provided in Table 14.

[2] = system: brains, heart, liver, muscle, and DRG of the NHPs; assay: Maturation of TTM-001 and TTM-002 capsids, NGS enrichment in NHP tissues; assay type: in vivo; details: relative to AAV9 control
In short: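 Variants carry mutations within and flanking the loop IV peptide insert: positions 450–466 were triplet-randomized, while positions 449–466 received low-frequency point mutations. The combined pool went into two NHPs, and each peptide was scored by NGS enrichment ratio against AAV9.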

brain [3] = assay: Matured TTM-001 and TTM-002 variants, NGS enrichment in mouse brain; assay type: in vivo, mice; details: mouse brain; relative to AAV9 control

KAEIGHDSPHKSGQNQQT
Fold enrichment over TTM-002 (brain [1]): 2.17 | Fold Enrichment relative to AAV9, Brain (NHP) ([2]; NGS fold-enrichment of matured AAV capsid variants, NHP brain, RNA): 63.249 fold | Fold Enrichment relative to AAV9, DRG (NHP) ([2]; NHP DRG): 0.000 fold | Fold Enrichment relative to AAV9, Heart (NHP) ([2]; NHP heart): 0.000 fold | Fold Enrichment relative to AAV9, Liver DNA (NHP) ([2]; NHP liver, DNA): 0.024 fold | Fold Enrichment relative to AAV9, Liver RNA (NHP) ([2]; NHP liver, RNA): 0.060 fold | Fold Enrichment relative to AAV9, Muscle (NHP) ([2]; NHP muscle): 0.000 fold | Fold Enrichment relative to AAV9, Brain (Mouse) (brain [3]): 27.173 fold

KQQQGHDSPHKSGQNQQT
Fold enrichment over TTM-002 (brain [1]): 2.01

KRINGHDSPHKSGQKQQN
Fold enrichment over TTM-002 (brain [1]): 2.34

KTAKDHDSPHKSGQNQQT
Fold enrichment over TTM-002 (brain [1]): 2.11

KTANEHDSPHKSGQNQQT
Fold enrichment over TTM-002 (brain [1]): 2.05

KTGNGHDSPHKSGQYQQT
Fold enrichment over TTM-002 (brain [1]): 2.03

KTIKDNDSPHKSGQNQQT
Fold enrichment over TTM-002 (brain [1]): 2.27

KTINGHDSPHINGQKQQT (KTINGHDSPHTNGQKQQT)
Fold enrichment over TTM-002 (brain [1]): 2.38

KTINGHDSPHKRGQHRQT
Fold enrichment over TTM-002 (brain [1]): 4.20

KTINGHDSPHKSAQNQWT
Fold enrichment over TTM-002 (brain [1]): 2.07

KTINGHDSPHKSGRRRQT
Fold enrichment over TTM-002 (brain [1]): 2.04

KTINGHDSPHKSRQNDQT
Fold enrichment over TTM-002 (brain [1]): 2.01

KTINGHDSPHLCGQNQQT
Fold enrichment over TTM-002 (brain [1]): 2.59

KTINGHDSPHLLWQNQQT
Fold enrichment over TTM-002 (brain [1]): 2.12

KTINGHDSPHVIDQNQQT (KTINGHDSPHVTDQNQQT)
Fold enrichment over TTM-002 (brain [1]): 5.20

KTINGHDSPHWLLQNQQT
Fold enrichment over TTM-002 (brain [1]): 2.37

KTINGHESPHKSAQNHQT
Fold enrichment over TTM-002 (brain [1]): 2.07

KTINGHLSPHYFGQNQQT
Fold enrichment over TTM-002 (brain [1]): 2.41

KTINGHLSPHYYGQNQQT
Fold enrichment over TTM-002 (brain [1]): 2.13

KTINGHPSPHYLGQNQQT
Fold enrichment over TTM-002 (brain [1]): 2.14

KTINGHSSPHYFGQNQQT
Fold enrichment over TTM-002 (brain [1]): 2.05

KTINGHYSPHLFGQNQQT
Fold enrichment over TTM-002 (brain [1]): 2.02

KTINGNYSPHKIGQNQQT
Fold enrichment over TTM-002 (brain [1]): 2.02

KTINRQRSPHKSGQNQQT
Fold enrichment over TTM-002 (brain [1]): 2.11

KTPQDHDSPHKSGQNQQT
Fold enrichment over TTM-002 (brain [1]): 2.00

KTPWEHDSPHKSGQNQQT
Fold enrichment over TTM-002 (brain [1]): 2.05

KTSNGDDSPHKSGRNQQT
Fold enrichment over TTM-002 (brain [1]): 2.17

KVEWGHDSPHKSGQNQQT
Fold enrichment over TTM-002 (brain [1]): 2.15

KVEYGHDSPHKSGQNQQT (peptide inserted in AAV capsid)
Fold enrichment over TTM-002 (brain [1]): 2.17
